In US20240238422A1 (Osprey Biopharmaceuticals, Inc., priority 2021, published 2024):

Columns and labels:
Siglec-2 (CD22) = settings: SAM for Siglec-2 (CD22); value of the cited reference; cited from earlier work
human CD22 = molecular target: T1, human CD22 (Homo sapiens, UniProt P20273); assay: SPR binding of synthetic Siglec ligands to human CD22 ectodomain (Biacore 8K+); settings: for Kd: SPR, alkyne-terminating precursors of the PFP linkers, read-out: Human Siglec-2 Binding Affinity; for Human Siglec-2 Binding Affinity: grade in words for the conjugatable Siglec ligand-linker
T1 construct: Fc (human CD22-Fc fusion); purchased R&D Systems AV11968-050
Experimental: (§1) The following ligands were evaluated for mouse and human CD22 binding: 1) BPC-Neu5Gc PEG (Cpd. No. 26463), 2) BPC-Neu5Gc GAL (Cpd. No. 26339), 3) MPB-Neu5Ac PEG (Cpd. No. 26334), 4) MPB-Neu5Ac GAL (Cpd. No. 26409), 5) Neu5Gc PEG (Cpd. No. 26591). All tested compounds are alkyne-terminating precursors of PFP-terminating, conjugatable Siglec Linker structures used in conjugates in the following examples.
(§2) Binding assays for synthetic CD22 ligand binding to CD22 receptor ectodomain were run on a Biacore 8K+ instrument (Cytiva). Surface preparation for CD22 conjugates binding to human or mouse CD22 protein consisted of two steps, covalent immobilization of streptavidin followed by capture of Avi-tagged and biotinylated human CD22-Fc fusion (R&D Systems, Cat #AV11968-050) and a mono-Fc fusion of mouse CD22. Using standard amine coupling protocols, Streptavidin (Invitrogen, Cat #: 434301) was immobilized to a Cytiva CM5 chip (Cytiva, Cat #BR100530) by injecting at 100 ug/mL in Sodium Acetate, pH 4.5 (Cytiva, Cat #BR100350) on both flow cells, yielding a final response of 2500 RU. Capture of biotinylated mono Fc human CD22 was performed on channels 1-4 and mouse CD22 on channels 5-8 on the active flow cell (2) and the reference flow cell (1) was kept as unmodified streptavidin to account for any non-specific binding. Human CD22 or mouse CD22 (mono-Fc fusion, 5 μg/mL) was injected on the active flow cell (2) for 90 seconds at 5 μL/min, yielding about 210 RU of captured constructs.
(§3) Binding experiments of Siglec-ligand conjugated proteins were performed on the surfaces prepared above in HBS-EP+ (10 mM HEPES, 150 mM NaCl, 3 mM EDTA, 0.05% Tween-20, pH 7.5) as the running buffer. Conjugates were serially diluted 1:1 in running buffer from 1 μM to 31.25 nM and injected over both the reference and active flow cells for 90 seconds at 30 μL/min. The conjugates were then allowed to dissociate from the surface for 300 seconds. No regeneration was required as the conjugates completely dissociated from the surface after 30 seconds.

mouse CD22 = molecular target: T2, mouse CD22 (Mus musculus, UniProt P35329); assay: SPR binding of synthetic Siglec ligands to mouse CD22 ectodomain (Biacore 8K+); settings: for Kd: SPR, alkyne-terminating precursors of the PFP linkers, read-out: Mouse Siglec-2 Binding Affinity; for Mouse Siglec-2 Binding Affinity: grade in words for the conjugatable Siglec ligand-linker
T2 construct: synthetic Siglec ligands for recombinant human and mouse CD22 ectodomains
T2 sequence (P35329 22-708 limits assumed): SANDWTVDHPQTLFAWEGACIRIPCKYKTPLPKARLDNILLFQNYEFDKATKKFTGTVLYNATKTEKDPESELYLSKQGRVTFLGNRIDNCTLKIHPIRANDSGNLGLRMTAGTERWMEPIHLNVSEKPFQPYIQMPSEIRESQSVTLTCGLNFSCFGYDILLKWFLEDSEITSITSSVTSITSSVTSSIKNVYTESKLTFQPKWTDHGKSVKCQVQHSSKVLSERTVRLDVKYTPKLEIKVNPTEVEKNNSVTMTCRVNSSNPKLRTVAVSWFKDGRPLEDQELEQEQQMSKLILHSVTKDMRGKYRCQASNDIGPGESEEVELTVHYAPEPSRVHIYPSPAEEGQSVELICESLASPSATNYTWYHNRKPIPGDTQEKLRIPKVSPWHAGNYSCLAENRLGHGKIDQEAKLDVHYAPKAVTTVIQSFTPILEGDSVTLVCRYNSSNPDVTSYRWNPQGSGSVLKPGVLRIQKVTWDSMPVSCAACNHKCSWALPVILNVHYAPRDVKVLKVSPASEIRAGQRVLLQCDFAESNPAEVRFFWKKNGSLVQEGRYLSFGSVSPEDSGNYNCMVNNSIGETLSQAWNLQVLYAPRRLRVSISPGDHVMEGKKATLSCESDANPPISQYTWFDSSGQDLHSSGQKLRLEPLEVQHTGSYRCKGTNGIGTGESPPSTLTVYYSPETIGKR
Experimental: as §1, §2, §3

T1 sequence (P20273 20-687 limits assumed): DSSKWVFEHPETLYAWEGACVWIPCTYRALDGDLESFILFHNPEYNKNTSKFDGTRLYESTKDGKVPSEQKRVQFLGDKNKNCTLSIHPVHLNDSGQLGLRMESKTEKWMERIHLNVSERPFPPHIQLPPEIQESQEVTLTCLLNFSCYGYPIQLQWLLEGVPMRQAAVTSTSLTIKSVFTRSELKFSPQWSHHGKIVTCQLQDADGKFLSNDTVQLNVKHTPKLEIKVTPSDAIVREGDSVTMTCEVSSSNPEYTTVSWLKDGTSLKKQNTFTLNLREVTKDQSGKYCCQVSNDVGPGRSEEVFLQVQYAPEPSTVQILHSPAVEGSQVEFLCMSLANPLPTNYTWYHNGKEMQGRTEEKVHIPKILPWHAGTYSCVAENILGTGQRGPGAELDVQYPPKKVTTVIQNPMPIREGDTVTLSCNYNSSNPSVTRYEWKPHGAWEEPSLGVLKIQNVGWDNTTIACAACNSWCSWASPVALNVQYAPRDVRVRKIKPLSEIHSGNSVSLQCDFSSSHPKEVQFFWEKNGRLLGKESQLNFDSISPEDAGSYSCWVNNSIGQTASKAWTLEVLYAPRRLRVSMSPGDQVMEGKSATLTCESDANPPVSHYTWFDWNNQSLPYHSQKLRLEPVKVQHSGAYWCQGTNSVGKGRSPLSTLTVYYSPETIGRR

Row | SMILES | Kd (human CD22) | Kd (mouse CD22) | Human Siglec-2 Binding Affinity (human CD22) | Mouse Siglec-2 Binding Affinity (mouse CD22) | IC50 (Siglec-2 (CD22))
1 | CO[C@]1(C(=O)O)CC(O)[C@@H](NC(C)=O)C([C@H](O)[C@H](O)CNC(=O)c2ccc(-c3ccccc3)cc2)O1 (some centres unmarked) |  |  |  |  | 4 µM
2 | O=C(Cc1ccc(-c2ccc(O)cc2)cc1)NC[C@@H](O)C(O)C1O[C@@](OCc2cccc(Cl)c2Cl)(C(=O)O)CC(O)[C@H]1NS(=O)(=O)c1ccccc1[N+](=O)[O-] (some centres unmarked) |  |  |  |  | 0.06 µM
3 | CO[C@]1(C(=O)O)CC(NS(=O)(=O)c2ccc(C)cc2)[C@@H](NC(C)=O)C([C@H](O)[C@H](O)CNC(=O)c2ccc(-c3ccccc3)cc2)O1 (some centres unmarked) |  |  |  |  | 0.15 µM
4 | C#CCOCCOCCO[C@]1(C(=O)O)C[C@H](O)[C@@H](NC(=O)CO)[C@H]([C@H](O)[C@H](O)CNC(=O)Cc2ccc(-c3ccccc3)cc2)O1 [Cpd. No. 26463, (2R,4S,5R,6R)-6-((1R,2R)-3-(2-([1,1′-biphenyl]-4-yl)acetamido)-1,2-dihydroxypropyl)-4-hydroxy-5-(2-hydroxyacetamido)-2-(2-(2-(prop-2-yn-1-yloxy)ethoxy)ethoxy)tetrahydro-2H-pyran-2-carboxylic acid] | 1.3 µM | 9.6 µM |  |  | 
5 | O=C(CCOCCOCCn1cc(COCCOCCO[C@]2(C(=O)O)C[C@H](O)[C@@H](NC(=O)CO)[C@H]([C@H](O)[C@H](O)CNC(=O)Cc3ccc(-c4ccccc4)cc3)O2)nn1)NCCCC[C@H](NC(=O)CCCNC(=O)CCOCCOCCn1cc(COCCOCCO[C@]2(C(=O)O)C[C@H](O)[C@@H](NC(=O)CO)[C@H]([C@H](O)[C@H](O)CNC(=O)Cc3ccc(-c4ccccc4)cc3)O2)nn1)C(=O)N[C@@H](CCCCNC(=O)CCOCCOCCn1cc(COCCOCCO[C@]2(C(=O)O)C[C@H](O)[C@@H](NC(=O)CO)[C@H]([C@H](O)[C@H](O)CNC(=O)Cc3ccc(-c4ccccc4)cc3)O2)nn1)C(=O)NCCOCCOCCOCCOCCC(=O)Oc1c(F)c(F)c(F)c(F)c1F [Cpd. No. 26477] |  |  | Strong | Strong | 
6 | O=C(CCOCCOCCn1cc(COCCOCCOCCOCCO)nn1)NCCCC[C@@H](NC(=O)CCCNC(=O)CCOCCOCCn1cc(COCCOCCOCCOCCO)nn1)C(=O)N[C@H](CCCCNC(=O)CCOCCOCCn1cc(COCCOCCOCCOCCO)nn1)C(=O)NCCOCCOCCOCCOCCC(=O)Oc1c(F)c(F)c(F)c(F)c1F [Cpd. No. 26534, perfluorophenyl (16R,19R)-1-(4-(13-hydroxy-2,5,8,11-tetraoxatridecyl)-1H-1,2,3-triazol-1-yl)-16,19-bis(4-(3-(2-(2-(4-(13-hydroxy-2,5,8,11-tetraoxatridecyl)-1H-1,2,3-triazol-1-yl)ethoxy)ethoxy)propanamido)butyl)-9,14,17,20-tetraoxo-3,6,24,27,30,33-hexaoxa-10,15,18,21-tetraazahexatriacontan-36-oate] |  |  | No Binding | No Binding | 
7 | C#CCOCCOCCO[C@]1(C(=O)O)C[C@H](O)[C@@H](NC(=O)CO)[C@H]([C@H](O)[C@H](O)CO)O1 [Cpd. No. 26591, (2R,4S,5R,6R)-4-hydroxy-5-(2-hydroxyacetamido)-2-(2-(2-(prop-2-yn-1-yloxy)ethoxy)ethoxy)-6-((1R,2R)-1,2,3-trihydroxypropyl)tetrahydro-2H-pyran-2-carboxylic acid] | > 450 µM | > 1000 µM |  |  | 

Continued, in another order:

Row | Kd (human CD22) | Kd (mouse CD22) | Human Siglec-2 Binding Affinity (human CD22) | Mouse Siglec-2 Binding Affinity (mouse CD22) | SMILES | IC50 (Siglec-2 (CD22))
8 |  |  | Strong | Strong | O=C(CCOCCOCCn1cc(COCCOCCO[C@]2(C(=O)O)C[C@H](O)[C@@H](NC(=O)CO)[C@H]([C@H](O)[C@H](O)CNC(=O)Cc3ccc(-c4ccccc4)cc3)O2)nn1)NCCCC[C@H](NC(=O)CCCNC(=O)CCOCCOCCn1cc(COCCOCCO[C@]2(C(=O)O)C[C@H](O)[C@@H](NC(=O)CO)[C@H]([C@H](O)[C@H](O)CNC(=O)Cc3ccc(-c4ccccc4)cc3)O2)nn1)C(=O)NCCOCCOCCOCCOCCC(=O)Oc1c(F)c(F)c(F)c(F)c1F [Cpd. No. 26475] | 
9 |  |  | No Binding | No Binding | O=C(CCOCCOCCOCCOCCn1cc(COCCOCCOCCOCCO)nn1)Oc1c(F)c(F)c(F)c(F)c1F [Cpd. No. 26530, perfluorophenyl 1-(4-(13-hydroxy-2,5,8,11-tetraoxatridecyl)-1H-1,2,3-triazol-1-yl)-3,6,9,12-tetraoxapentadecan-15-oate] | 
10 |  |  | No Binding | No Binding | O=C(CCOCCOCCn1cc(COCCOCCOCCOCCO)nn1)NCCCC[C@@H](NC(=O)CCCNC(=O)CCOCCOCCn1cc(COCCOCCOCCOCCO)nn1)C(=O)NCCOCCOCCOCCOCCC(=O)Oc1c(F)c(F)c(F)c(F)c1F [Cpd. No. 26532, perfluorophenyl (R)-1-(4-(13-hydroxy-2,5,8,11-tetraoxatridecyl)-1H-1,2,3-triazol-1-yl)-16-(4-(3-(2-(2-(4-(13-hydroxy-2,5,8,11-tetraoxatridecyl)-1H-1,2,3-triazol-1-yl)ethoxy)ethoxy)propanamido)butyl)-9,14,17-trioxo-3,6,21,24,27,30-hexaoxa-10,15,18-triazatritriacontan-33-oate] | 
11 |  |  | Weak | Weak | O=C(CO)N[C@H]1[C@H]([C@H](O)[C@H](O)CO)O[C@@](OCCOCCOCc2cn(CCOCCOCCOCCOCCC(=O)Oc3c(F)c(F)c(F)c(F)c3F)nn2)(C(=O)O)C[C@@H]1O [Cpd. No. 26614, (2R,4S,5R,6R)-4-hydroxy-5-(2-hydroxyacetamido)-2-(2-(2-((1-(15-oxo-15-(perfluorophenoxy)-3,6,9,12-tetraoxapentadecyl)-1H-1,2,3-triazol-4-yl)methoxy)ethoxy)ethoxy)-6-((1R,2R)-1,2,3-trihydroxypropyl)tetrahydro-2H-pyran-2-carboxylic acid] | 
12 |  |  | Weak | Weak | O=C(CCOCCOCCn1cc(COCCOCCO[C@]2(C(=O)O)C[C@H](O)[C@@H](NC(=O)CO)[C@H]([C@H](O)[C@H](O)CO)O2)nn1)NCCCC[C@H](NC(=O)CCCNC(=O)CCOCCOCCn1cc(COCCOCCO[C@]2(C(=O)O)C[C@H](O)[C@@H](NC(=O)CO)[C@H]([C@H](O)[C@H](O)CO)O2)nn1)C(=O)NCCOCCOCCOCCOCCC(=O)Oc1c(F)c(F)c(F)c(F)c1F [Cpd. No. 26615] | 
13 |  |  | Weak | Weak | O=C(CCOCCOCCn1cc(COCCOCCO[C@]2(C(=O)O)C[C@H](O)[C@@H](NC(=O)CO)[C@H]([C@H](O)[C@H](O)CO)O2)nn1)NCCCC[C@@H](CN[C@@H](CCCCNC(=O)CCOCCOCCn1cc(COCCOCCO[C@]2(C(=O)O)C[C@H](O)[C@@H](NC(=O)CO)[C@H]([C@H](O)[C@H](O)CO)O2)nn1)C(=O)NCCOCCOCCOCCOCCC(=O)Oc1c(F)c(F)c(F)c(F)c1F)NC(=O)CCCNCCCOCCOCCn1cc(COCCOCCO[C@]2(C(=O)O)C[C@H](O)[C@@H](NC(=O)CO)[C@H]([C@H](O)[C@H](O)CO)O2)nn1 [Cpd. No. 26616] | 
